Data as given in BigSolDB 2.1.

O=C(Nc1ccc(Cl)cc1)Nc1ccc(Cl)c(Cl)c1
solubility (mole fraction)
Conditions | 288.15 K | 293.15 K | 298.15 K | 303.15 K | 308.15 K | 313.15 K | 318.15 K
in 1,4-dioxane | 0.00103 | 0.00176 | 0.00239 | 0.00403 | 0.00658 | 0.00931 | 0.0141
in cyclohexane | 1.68e-07 | 2.73e-07 | 4.23e-07 | 7.31e-07 | 1.17e-06 | 1.82e-06 | 2.72e-06
